Experimental data reported in publication PMC9408872, “Harmicens, Novel Harmine and Ferrocene Hybrids: Design, Synthesis and Biological Activity” (International Journal of Molecular Sciences, 2022).
Like-named read-outs stand apart in the source and are kept apart here.

Key:
[1] = test system: P. falciparum 3D7 (CQ-sensitive) erythrocytic stages; assay: In vitro drug sensitivity assay (HRP2-ELISA) against erythrocytic stages, Pf3D7; assay type: cell-based; conditions: CQ-sensitive strain; three days incubation; mean ± SD; read-out: IC50 Pf3D7
Procedure: (§1) The in vitro activity of harmicens 20–37 against the erythrocytic stages of CQ-sensitive (Pf3D7) and multidrug-resistant (PfDd2) P. falciparum strains was evaluated following a previously described method (Table 1).
(§2) The antiplasmodial activity of harmicens 20–37 was evaluated against two strains of P. falciparum (3D7—CQ-sensitive, Dd2—multidrug-resistant) as previously described using the histidine-rich protein 2 (HRP2) assay. Briefly, 96-well plates were pre-coated with the tested compounds in a three-fold dilution before ring-stage parasites were added to complete the culture medium at a hematocrit of 1.5% and parasitemia of 0.05%. After three days of incubation at 37 °C, 5% CO2, and 5% oxygen, plates were frozen until HRP2-ELISA analysis. All compounds were evaluated in duplicate in at least two independent experiments. The IC50 was determined using a nonlinear regression analysis of log concentration–response curves using the drc-package v0.9.0 of R v2.6.1 (R Foundation, Vienna, Austria).

[2] = test system: P. falciparum Dd2 (multidrug-resistant) erythrocytic stages; assay: In vitro drug sensitivity assay (HRP2-ELISA) against erythrocytic stages, PfDd2; assay type: cell-based; conditions: for IC50: read-out: IC50 PfDd2
Procedure: as §1, §2

[3] = test system: HepG2 (hepatocellular carcinoma); assay: MTT cytotoxicity assay, HepG2; assay type: cell-based, human; conditions: read-out: IC50 HepG2
Procedure: (§3) The parent compound harmine, as well as the reference drug 5-fluorouracil, were used as positive controls.
(§4) The experiments were carried out on five human cell lines purchased from American Type Culture Collection (ATCC): HepG2 (hepatocellular carcinoma; ATCC® HB-8065™), SW620 (colorectal adenocarcinoma; ATCC® CCL-227™), HCT116 (colorectal carcinoma; ATCC® CCL-247™), MCF-7 (breast adenocarcinoma; ATCC® HTB-22™), and Hek293T (embryonic kidney cells; ATCC® CRL-3216™). All cell lines were cultured as monolayers and maintained in Dulbecco’s Modified Eagle Medium (DMEM) (Capricorn Scientific, Ebsdorfergrund, Germany) supplemented with 10% fetal bovine serum (FBS) (Capricorn Scientific, Ebsdorfergrund, Germany), 100 U/mL penicillin, and 100 µg/mL streptomycin (Capricorn Scientific, Ebsdorfergrund, Germany) in a humidified atmosphere with 5% CO2 at 37 °C. Cells were seeded in 96-well plates (Corning, Durham, NC, USA) at 5000–7000 cells per well (depending on the cell-doubling time of a specific cell line) in 0.1 mL media and cultured for 24 h. The next day, the medium was aspirated, and cells were treated for 72 h. Only the compounds that led to more than a 50% reduction in mitochondrial metabolic activity at a concentration of 50 µM were selected for further analysis. The following concentrations of selected compounds were used: 25, 10, 5, and 1 µM. Working dilutions were freshly prepared on the day of the testing. A fresh growth medium was added to untreated control cells, which were defined as 100% viable. DMSO (0.13%) in DMEM was considered a negative control. 5-Fluorouracil (5-FU) and harmine were used as positive controls. At the end of treatment, the medium was removed, and cells were incubated for 1 h with 0.5 mg/mL MTT (Abcam, Cambridge, MA, USA) dissolved in serum-deprived DMEM. The MTT-containing medium was then removed, and 0.1 mL isopropanol was added per well to lyse cells and dissolve formazan. The optical density was measured at 570 nm using a microplate reader (VICTOR3, PerkinElmer, Waltham, MA, USA). Each test point was performed in triplicate. The absorbance was directly proportional to the cell viability. The IC50 values (concentration required to decrease viability by 50%) were calculated by using nonlinear regression on the sigmoidal dose–response plots and are expressed as mean ± SD.

[4] = test system: SW620 (colorectal adenocarcinoma); assay: MTT cytotoxicity assay, SW620; assay type: cell-based, human; conditions: read-out: IC50 SW620
Procedure: as §3, §4

[5] = test system: HCT116 (colorectal carcinoma); assay: MTT cytotoxicity assay, HCT116; assay type: cell-based, human; conditions: for IC50: read-out: IC50 HCT116; for SI (HCT116): selectivity index: ratio of IC50 Hek293T to IC50 HCT116
Procedure: as §3, §4

[6] = test system: MCF-7 (breast adenocarcinoma); assay: cells; conditions: for IC50: read-out: IC50 MCF-7; for SI (MCF-7): selectivity index: ratio of IC50 Hek293T to IC50 MCF-7
Procedure: as §3, §4

[7] = test system: Hek293T (embryonic kidney cells); assay: MTT cytotoxicity assay, Hek293T; assay type: cell-based, human; conditions: 72 h, read-out: IC50 Hek293T
Procedure: as §3, §4

[8] = multidrug-resistant strain, three days incubation, mean ± SD
[9] = noncancer cell line, MTT, mean ± SD

| Compound | IC50 [1] [µM] | IC50 [2, 8] [µM] | IC50 ([3]; 72 h, MTT, mean ± SD) [µM] | IC50 ([4]; 72 h, MTT, mean ± SD) [µM] | IC50 ([5]; 72 h, MTT, mean ± SD) [µM] | SI (HCT116) [5] | activity against MCF-7 relative to 5-FU (fold stronger) [6] | IC50 ([6]; 72 h, MTT, mean ± SD) [µM] | SI (MCF-7) [6] | IC50 [7, 9] [µM] | IC50 ([2]; Plasmodium falciparum, DD2, 72 h) [µM] | IC50 PfDd2 [2, 8] | IC50 ([3]; Homo sapiens, HepG2, 72 h) [µM] | IC50 ([4]; Homo sapiens, SW-620, 72 h) [µM] | IC50 ([5]; Homo sapiens, HCT-116, 72 h) [µM] | IC50 ([6]; Homo sapiens, MCF7, 72 h) [µM] | IC50 ([7]; Homo sapiens, HEK-293T) [µM] |
| --- | --- | --- | --- | --- | --- | --- | --- | --- | --- | --- | --- | --- | --- | --- | --- | --- | --- |
| O=C(NCc1nccc2c1[nH]c1ccccc12)[c-]1cccc1.[Fe+2].c1cc[cH-]c1 [Compound 30, N-((9H-Pyrido[3,4-b]indol-1-yl)methyl)ferrocenecarboxamide] | > 56 | 14 ± 1.95 | > 50 | 45.1 ± 3.7 | 16.8 ± 0.9 | >3 | 3–6.5 fold | 8.5 ± 1.5 | >5.9 | > 50 |  |  |  |  |  |  |  |
| COc1ccc2c(c1)[nH]c1c(C)nccc12 [HAR, harmine] |  |  |  |  |  |  |  |  |  |  | > 27.7 | not active at all | 18.7 ± 0.8 | 4.7 ± 0.6 | 4 ± 0.8 | 13.5 ± 1.1 | 12.6 ± 0.8 |
| Cc1nccc2c1[nH]c1ccc(OCCn3cc(-[c-]4cccc4)nn3)cc12.[Fe+2].c1cc[cH-]c1 [Compound 22, 1-Methyl-6-(2-(4-ferrocenyl-1H-1,2,3-triazol-1-yl)ethoxy)-9H-pyrido[3,4-b]indole] | 0.35 ± 0.19 | 0.89 ± 0.01 | 8.4 ± 0.9 | 6.5 ± 0.7 | 9 ± 0.7 | 0.8 |  | 6.9 ± 0.5 | 1.1 | 7.3 ± 2.8 |  |  |  |  |  |  |  |
| COc1ccc2c3ccnc(C)c3n(CCNC(=O)[c-]3cccc3)c2c1.[Fe+2].c1cc[cH-]c1 [Compound 33, N-(2-(7-Methoxy-1-methyl-9H-pyrido[3,4-b]indol-9-yl)ethyl)ferrocenecarboxamide] | 0.4 ± 0.18 | 2.04 ± 0.29 | > 50 | > 50 | 16.3 ± 3.2 |  |  | 30.5 ± 13.2 | >1.7 | > 50 |  |  |  |  |  |  |  |
| Cc1nccc2c1[nH]c1ccc(OCc3cn(C[c-]4cccc4)nn3)cc12.[Fe+2].c1cc[cH-]c1 [Compound 27, 6-((1-(Ferrocenylmethyl)-1H-1,2,3-triazol-4-yl)methoxy)-1-methyl-9H-pyrido[3,4-b]indole] | 0.31 ± 0.01 | 1.09 ± 0.01 | 17 ± 0.3 | 8.1 ± 0.2 | > 50 | < 0.9 | 3–6.5 fold | 6.8 ± 0.2 | 6.3 | 43 ± 8.6 |  |  |  |  |  |  |  |
| Cc1nc(CNC(=O)[c-]2cccc2)cc2c1[nH]c1ccccc12.[Fe+2].c1cc[cH-]c1 [Compound 31, N-((1-Methyl-9H-pyrido[3,4-b]indol-3-yl)methyl)ferrocenecarboxamide] | 13.2 ± 8.54 | 8.03 ± 0.19 | > 50 | > 50 | > 50 | >1 |  | 19.9 ± 1.1 | >2.51 | > 50 |  |  |  |  |  |  |  |
| [Fe+2].c1cc[cH-]c1.c1ccc2c(c1)[nH]c1c(-c3cn(C[c-]4cccc4)nn3)nccc12 [Compound 25, 1-(1-(Ferrocenylmethyl)-1H-1,2,3-triazol-4-yl)-9H-pyrido[3,4-b]indole] | 3.62 ± 1.08 | 4.37 ± 1.79 | > 50 | 23.1 ± 6.4 | 7.6 ± 0.5 | >6.6 |  | > 50 | >1 | > 50 |  |  |  |  |  |  |  |
